Our source for the ED50 values is patent EP0207913A1, “Catechol carboxamides, process for their preparation, intermediates and a pharmaceutical preparation” (priority 1985, dated 1987).

Like-named read-outs stand apart in the source and are kept apart here.

In this assay the test system is apomorphine syndrome. Briefly: In vivo test: apomorphine syndrome inhibition. Set-up: species or system Male Sprague-Dawley rats. Conditions: ip, rat, compound injected 60 min prior to apomorphine hydrochloride 1 mg/kg s.c. As to the method:
Male Sprague-Dawley rats (weighing 225-275 g) were used. […] The compounds were injected 60 min. prior to apomorphine hydrochloride (1 mg/kg) which was injected subcutaneously (s.c.) into the neck.
Directly after injection, the animals were placed in the cages, one in each cage. Scoring of the stereotypies were performed by two separate methods. The first scoring system was a modified version of the system introduced by Costall and Naylor (1973). The strength of the stereotype was scored on a 0-3 scale as follows:
In the second system the number of animals displaying hyperactivity caused by apomorphine were scored. Each group consisted of 6-8 animals. Saline controls were always run simultaneously. […] ED50's of the second scoring system are the doses which reduce the number of animals showing hyperactivity by 50 % over the observation period of ? min. The ED50 were calculated from log dose-response curves by the method of least squares from 4-6 dose levels with 6-8 animals per dose level.

Where [1] appears, read: dose reducing number of animals showing hyperactivity by 50 %, read-out: Reduction of hyperactivity ED50.
Setting [2] is: dose reducing strength of stereotypies (0-3 scale) by 50 % over 60 min, read-out: Reduction of stereotypies ED50.

What is called ED50 is the midpoint of the dose-response relation. For `CCN1CCCC1CNC(=O)c1cc(Br)cc(OC)c1OC` (centres unmarked), the ED50 stood at 0.0032 µmol/kg under setting [1] and 0.13 µmol/kg under setting [2].
In the case of `C=CCN1CCCC1CNC(=O)c1cc(Br)cc(OC)c1OC` (centres unmarked), the ED50 came to 0.02 µmol/kg under setting [1] and 0.12 µmol/kg under setting [2].
The like results for `CCN1CCCC1CNC(=O)c1c(O)c(Cl)cc(Cl)c1OC` (centres unmarked) [a compound of EP 60235] were, in that order, 0.11 µmol/kg and 2.4 µmol/kg.
Taken in the same sequence, the figures for `CCN1CCCC1CNC(=O)c1cc(Br)ccc1OC` (centres unmarked) [ex 5 of US 3 342 (26)] were 2.5 µmol/kg and 6.5 µmol/kg.
